Data as given in paper PMC12881681 (Molecular Pharmacology, 2025).
Values joined by “and” are separate entries in the source; they are usually repeats but may differ in a detail not shown here. Equal values may be shown once. Read-outs that look alike come from different tables or passages of the source.

Assays:
human recombinant AOX1 = target: T1, human recombinant AOX1 (Homo sapiens, UniProt Q06278); test: Time-dependent inactivation of carbazeran 4-oxidation by human recombinant AOX1; type: biochemical; settings: each 10 μM (raloxifene 0.02 μM), 30-minute preincubation, vs vehicle control without preincubation
T1 construct: purchased Cypex Ltd CYP150
T1 sequence (Q06278 1-1338): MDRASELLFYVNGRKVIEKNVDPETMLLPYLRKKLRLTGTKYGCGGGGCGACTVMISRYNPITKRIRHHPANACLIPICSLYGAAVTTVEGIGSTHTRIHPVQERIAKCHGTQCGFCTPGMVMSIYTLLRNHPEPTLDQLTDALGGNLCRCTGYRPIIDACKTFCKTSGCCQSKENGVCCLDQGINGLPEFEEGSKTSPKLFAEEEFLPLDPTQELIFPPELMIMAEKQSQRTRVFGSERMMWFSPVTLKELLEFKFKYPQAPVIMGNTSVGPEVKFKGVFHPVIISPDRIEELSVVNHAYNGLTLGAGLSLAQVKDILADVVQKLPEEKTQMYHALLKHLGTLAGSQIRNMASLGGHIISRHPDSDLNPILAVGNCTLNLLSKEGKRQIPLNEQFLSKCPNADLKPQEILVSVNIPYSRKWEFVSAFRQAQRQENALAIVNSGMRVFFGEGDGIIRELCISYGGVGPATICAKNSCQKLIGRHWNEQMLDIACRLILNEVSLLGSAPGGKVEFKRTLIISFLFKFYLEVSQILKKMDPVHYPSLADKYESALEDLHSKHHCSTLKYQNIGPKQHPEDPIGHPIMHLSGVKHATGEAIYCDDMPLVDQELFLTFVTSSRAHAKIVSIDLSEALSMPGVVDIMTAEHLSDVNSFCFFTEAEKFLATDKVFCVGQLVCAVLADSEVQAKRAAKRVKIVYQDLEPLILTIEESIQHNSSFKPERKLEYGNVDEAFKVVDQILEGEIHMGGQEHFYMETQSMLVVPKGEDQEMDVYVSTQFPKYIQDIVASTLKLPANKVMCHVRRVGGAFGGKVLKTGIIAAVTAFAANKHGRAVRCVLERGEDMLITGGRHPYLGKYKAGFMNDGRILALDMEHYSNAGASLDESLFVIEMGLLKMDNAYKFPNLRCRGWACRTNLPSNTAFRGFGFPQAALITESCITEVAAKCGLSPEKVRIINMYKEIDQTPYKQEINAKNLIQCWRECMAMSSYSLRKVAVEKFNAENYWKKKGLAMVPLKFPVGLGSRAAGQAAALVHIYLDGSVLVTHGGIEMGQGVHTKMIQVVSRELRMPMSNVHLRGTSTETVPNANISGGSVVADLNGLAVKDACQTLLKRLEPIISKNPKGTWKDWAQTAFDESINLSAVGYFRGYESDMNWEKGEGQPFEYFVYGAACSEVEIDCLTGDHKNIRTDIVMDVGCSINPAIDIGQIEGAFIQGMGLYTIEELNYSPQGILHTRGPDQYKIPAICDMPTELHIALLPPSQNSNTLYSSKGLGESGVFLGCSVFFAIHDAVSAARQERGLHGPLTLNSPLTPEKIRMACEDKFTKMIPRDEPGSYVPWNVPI
Method: (§1) Carbazeran 4-oxidation and O^6-benzylguanine 8-oxidation were deployed as AOX1-selective catalytic markers.[27] The assay conditions (amount of cytosolic protein, incubation time, and substrate concentration) for carbazeran 4-oxidation catalyzed by human recombinant AOX1 and human/rat/mouse liver cytosols were optimized previously.[7]^,[25]
(§2) Enzymatic reaction was initiated by adding human liver cytosol (100 μg). After the specified preincubation duration, an aliquot (10 μL) of the preincubation mixture was transferred to 190 μL of a prewarmed (for 3 minutes at 37 °C) secondary incubation mixture (total volume of 200 μL) containing potassium phosphate buffer and carbazeran (15 μM) or O^6-benzylguanine (150 μM), which yielded a 20-fold dilution of the primary incubation mixture. The secondary incubation mixture was incubated for 5 minutes at 37 °C before the enzymatic reaction was terminated with 200 μL of ice-cold acetonitrile containing carbazeran-d4 (2.5 nM final concentration; internal standard for 4-oxo-carbazeran) or tolbutamide (25 nM final concentration; internal standard for 8-oxo-O^6-benzylguanine). Each sample was immediately mixed by vortex, placed on ice, centrifuged at 16,000g for 15 minutes at 4 °C and stored at –30 °C until ultra-high performance liquid chromatography–tandem mass spectrometry (UPLC-MS/MS) analysis. For enzyme inactivation assays involving rat and mouse liver cytosol and recombinant AOX1 assays, the experimental conditions were similar to those of human liver cytosol, except that the amount of cytosolic protein was 200 μg (rat) and 150 μg (mouse), respectively, and the incubation time of the secondary incubation mixture was 60 minutes. For the recombinant AOX1 enzyme assay, the amount of enzyme was 100 μg, the incubation time of the secondary incubation mixture was 15 minutes, and the total volume of the primary and secondary incubation mixtures was reduced to 100 μL.
(§3) An aliquot (10 μL) of the primary incubation mixture was transferred to a secondary incubation mixture containing carbazeran (15 μM) and incubated for (A) 180, (B) 5, or (C, D) 120 minutes.

AOX1 (rat liver cytosol) = test: Inactivation of carbazeran 4-oxidation by rat liver cytosol; type: biochemical; settings: 10 μM (raloxifene 0.02 μM), 30-minute preincubation
Method: as §1, §2, §3

[1] = cancer patients, cited from earlier work; for Cmax: 150 mg/day erlotinib
[2] = Human plasma concentrations after erlotinib dosing (literature)
[3] = target: T2, human liver cytosolic AOX1 (Homo sapiens, UniProt Q06278); test: Dialysis experiment (reversibility of AOX1 inactivation); type: biochemical; set-up: Enzymatic reaction was initiated by adding human liver cytosol (100 μg); tissue Corning, Inc. (Gentest brand) 452115; host or cells: human liver cytosol, pool of 150 donors; settings: 1.5 μM; for recovery of carbazeran 4-oxidation activity after dialysis: 4 and 24 hours of dialysis at 4 °C; for residual AOX1 activity: 6-minute preincubation, % of nondialyzed vehicle control
T2 sequence (Q06278 1-1338): T1 sequence (Q06278 1-1338)
Method: Simultaneously, another aliquot (150 μL) of the primary incubation mixture was transferred to a Slide-A-Lyzer mini dialysis device (0.1 mL) with a molecular weight cutoff of 10,000 (Pierce Chemical Co.) and placed in a beaker filled with 300 mL of ice-cold potassium phosphate buffer (100 mM, pH 7.4). Additionally, potassium phosphate buffer (300 mL) was replaced at 2 and 4 hours after the start of dialysis. Dialysis was performed at 4 °C for 4 and 24 hours with constant gentle stirring. Subsequently, 10 μL of the dialyzed mixture was transferred to the secondary incubation mixture and the residual AOX1 enzyme activity was determined by the carbazeran 4-oxidation assay.

[4] = target: T2, human liver cytosolic AOX1; test: AOX1 inactivation, O^6-benzylguanine 8-oxidation by human liver cytosol; type: biochemical; set-up: Enzymatic reaction was initiated by adding human liver cytosol (100 μg); tissue Corning, Inc. (Gentest brand) 452115; host or cells: human liver cytosol, pool of 150 donors; settings: gefitinib 3, 10, 30 μM

Row | SMILES | decrease in carbazeran 4-oxidation (human recombinant AOX1) | decrease in carbazeran 4-oxidation (AOX1 (rat liver cytosol)) | C24h ([1]; 150 mg/day erlotinib for 1–2 months) | Cmax,u ([2]; in vivo) | recovery of carbazeran 4-oxidation activity after dialysis [3] | effect of gefitinib on extent of AOX1 inactivation [4] | Cmax ([1]; day 28) | Cmax ([1]; erlotinib in plasma, day 24 to day 28) | Cmax,u ([2]; Cmax,u = plasma fu × Cmax, plasma fu = 0.07) | residual AOX1 activity ([3]; 24-hour dialysis at 4 °C) | residual AOX1 activity ([3]; without dialysis)
1 | C#Cc1cccc(Nc2ncnc3cc(OCCO)c(OCCO)cc23)c1 [O-Didesmethylerlotinib, O-didesmethylerlotinib] | 94% | 92%–97% | 0.86–4.2 ng/mL and 2.35–11.49 nM | 0.0001 to 0.0008 µM | not reversed | attenuated | – | – | – | – | –
2 | C#Cc1cccc(Nc2ncnc3cc(OCCOC)c(OCCO)cc23)c1 [O-Desmethylerlotinib, O-desmethylerlotinib] | 91% | 92%–97% | – | 0.0077 to 0.02 µM | not reversed | attenuated | – | – | – | – | –
3 | C#Cc1cccc(Nc2ncnc3cc(OCCOC)c(OCCOC)cc23)c1 [Erlotinib] | – | – | – | – | not recovered | attenuated | 5.39 µM | 4.41 to 5.39 µM | 0.31 to 0.38 µM | 3.7% | 7.8%
